In this test the test system is P388 leukemia ip, CD2F1 mice, survival T/C. Kind of test: NCI In Vivo Anticancer Drug Screen. Data for tumor model P388 Leukemia (intraperitoneal) in CD2F1 (CDF1) mice. As to conditions: endpoint: median survival time, higher = longer survival. In outline:
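Mice carrying the transplanted tumor received test compound or vehicle. Survival was recorded in each group, and the value is the treated-group measurement divided by that of the vehicle-treated control group.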

Where [1] appears, read: dose: 60.0 mg/kg/injection, schedule: Q01DX005 (ip), vehicle: Klucel (hydroxypropylcellulose) (HPC).
Setting [2] is: dose: 120.0 mg/kg/injection, schedule: Q01DX005 (ip), vehicle: Klucel (hydroxypropylcellulose) (HPC).
Setting [3] is: dose: 240.0 mg/kg/injection, schedule: Q01DX005 (ip), vehicle: Klucel (hydroxypropylcellulose) (HPC).
Where [4] appears, read: dose: 6.25 mg/kg/injection, schedule: Q01DX009 (ip), vehicle: saline.
Setting [5] is: dose: 12.5 mg/kg/injection, schedule: Q01DX009 (ip), vehicle: saline.
The mark [6] stands for this setting: dose: 25.0 mg/kg/injection, schedule: Q01DX009 (ip), vehicle: saline.
Where [7] appears, read: dose: 50.0 mg/kg/injection, schedule: Q01DX009 (ip), vehicle: saline.
Where [8] appears, read: dose: 100.0 mg/kg/injection, schedule: Q01DX009 (ip), vehicle: saline.
Setting [9] is: dose: 50.0 mg/kg/injection, schedule: Q01DX009 (ip), vehicle: saline with Tween-80.
[10] abbreviates: dose: 50.0 mg/kg/injection, schedule: Q04DX003 (ip), vehicle: saline with Tween-80.
The mark [11] stands for this setting: dose: 100.0 mg/kg/injection, schedule: Q01DX009 (ip), vehicle: saline with Tween-80.
[12] abbreviates: dose: 100.0 mg/kg/injection, schedule: Q04DX003 (ip), vehicle: saline with Tween-80.
The mark [13] stands for this setting: dose: 200.0 mg/kg/injection, schedule: Q01DX009 (ip), vehicle: saline with Tween-80.
The mark [14] stands for this setting: dose: 200.0 mg/kg/injection, schedule: Q04DX003 (ip), vehicle: saline with Tween-80.
Setting [15] is: dose: 400.0 mg/kg/injection, schedule: Q01DX009 (ip), vehicle: saline with Tween-80.
The mark [16] stands for this setting: dose: 400.0 mg/kg/injection, schedule: Q04DX003 (ip), vehicle: saline with Tween-80.

Values joined by “and” are separate entries in the source; they are usually repeats but may differ in a detail not shown here. Equal entries are not always repeated. Inconclusive results and toxic doses are left out. Peptide text beside a SMILES is read from it.

Take `COc1cccc(C(=O)O)c1C(=O)O`: the T/C is 97 % of control (dose: 25.0 mg/kg/injection, schedule: Q01DX009 (ip), vehicle: other); 100 % of control (dose: 50.0 mg/kg/injection, schedule: Q01DX009 (ip), vehicle: other); 99 % of control (dose: 100.0 mg/kg/injection, schedule: Q01DX009 (ip), vehicle: other); 106 % of control (dose: 200.0 mg/kg/injection, schedule: Q01DX009 (ip), vehicle: other); 103 % of control (dose: 400.0 mg/kg/injection, schedule: Q01DX009 (ip), vehicle: other).

Turning to `CC1=C(C(N)=O)C(/C=C/c2ccccc2)NC(=S)N1` (configuration not stated), the T/C under setting [1] is 106 % of control, the T/C under setting [2] is 100 % of control and the T/C under setting [3] is 100 % of control.

For the compound `O=c1[nH]c(=O)c2ncn(C3OC(CO)C(O)C3O)c2[nH]1.O=c1[nH]c(=O)c2ncn(C3OC(CO)C(O)C3O)c2[nH]1.[NH2-].[NH2-].[Pt+2]` (configuration not stated), the T/C runs as follows: under setting [4], 105 % of control; under setting [5], 110 % of control and 102 % of control; under setting [6], 92 % of control and 107 % of control; under setting [7], 100 % of control and 107 % of control; (dose: 50.0 mg/kg/injection, schedule: Q04DX003 (ip), vehicle: suspension in saline) 105 % of control; under setting [8], 96 % of control and 116 % of control. Also, the T/C by setting is: (dose: 100.0 mg/kg/injection, schedule: Q04DX003 (ip), vehicle: suspension in saline) 110 % of control; (dose: 200.0 mg/kg/injection, schedule: Q04DX003 (ip), vehicle: suspension in saline) 120 % of control; (dose: 400.0 mg/kg/injection, schedule: Q04DX003 (ip), vehicle: water) 174 % of control.

Consider `CC(C)(C)C1CCC(C(=O)O)CC1` (configuration not stated), for which the T/C by setting is: under setting [9], 91 % of control; under setting [10], 100 % of control; under setting [11], 100 % of control and 91 % of control; under setting [12], 95 % of control; under setting [13], 91 % of control and 100 % of control; under setting [14], 109 % of control and 95 % of control. The T/C reads like this: under setting [15], 91 % of control; under setting [16], 100 % of control.

Consider `C=C1C(=O)OC2C1C(OC(=O)/C(C)=C\C)CC1(CO1)C1C(O)C=C(C)C21O` (configuration not stated), for which the T/C (dose: 25.0 mg/kg/injection, schedule: Q04DX003 (ip), vehicle: saline with Tween-80) is 112 % of control and the T/C under setting [10] is 113 % of control.

In the case of `CN(CS(=O)(=O)c1ccccc1)CS(=O)(=O)c1ccccc1`, the T/C by setting is: under setting [1], 110 % of control; under setting [2], 105 % of control; under setting [3], 108 % of control.

`ClCCN(CCCl)c1ccc(CCN2CCOCC2)cc1`: the T/C reads like this: under setting [4], 100 % of control and 113 % of control; under setting [5], 150 % of control and 154 % of control; under setting [6], 150 % of control and 220 % of control.

Take `O=S1(=O)N=C(c2ccccc2)CC(c2ccccc2)N1` (configuration not stated): the T/C was 100 % of control under setting [9], 90 % of control under setting [11] and 90 % of control under setting [13].

For the compound `CC1(C)CC(=O)C=C(OCCc2ccccc2)C1`, the T/C by setting is: under setting [12], 100 % of control; under setting [14], 100 % of control; under setting [16], 95 % of control.

For the compound `CCCCOc1ccc(C(=O)N/N=C(\C)[C@]2(O)Cc3c(O)c4c(c(O)c3[C@@H](OC3CC(N)C(O)C(C)O3)C2)C(=O)c2c(OC)cccc2C4=O)cc1` (some centres not stated), the T/C reads like this: (dose: 0.12 mg/kg/injection, schedule: Q01DX009 (ip), vehicle: water) 115 % of control; (dose: 0.5 mg/kg/injection, schedule: Q01DX009 (ip), vehicle: water) 150 % of control and 151 % of control; (dose: 1.0 mg/kg/injection, schedule: Q01DX009 (ip), vehicle: water) 152 % of control and 160 % of control; (dose: 2.0 mg/kg/injection, schedule: Q01DX009 (ip), vehicle: water) 160 % of control and 179 % of control; (dose: 5.0 mg/kg/injection, schedule: Q01DX001 (ip), vehicle: water) 153 % of control; (dose: 20.0 mg/kg/injection, schedule: Q01DX001 (ip), vehicle: water) 106 % of control.

In the case of `CSC1=NN(C(C)=O)C(c2ccc3ccccc3n2)S1` (configuration not stated), the T/C is 95 % of control (dose: 50.0 mg/kg/injection, schedule: Q01DX005 (ip), vehicle: Klucel (hydroxypropylcellulose) (HPC)); 89 % of control (dose: 100.0 mg/kg/injection, schedule: Q01DX005 (ip), vehicle: Klucel (hydroxypropylcellulose) (HPC)); 99 % of control (dose: 200.0 mg/kg/injection, schedule: Q01DX005 (ip), vehicle: Klucel (hydroxypropylcellulose) (HPC)).

Regarding `COc1ccccc1C1NC(c2ccccc2OC)C2CCCC1C2=O` (configuration not stated), the T/C by setting is: (dose: 100.0 mg/kg/injection, schedule: Q04DX003 (ip), vehicle: saline) 88 % of control; (dose: 200.0 mg/kg/injection, schedule: Q04DX003 (ip), vehicle: saline) 88 % of control; (dose: 400.0 mg/kg/injection, schedule: Q04DX003 (ip), vehicle: saline) 90 % of control.

For the compound `O=c1[nH]c(=O)n(C2CC(O)C(CO)O2)cc1I` (configuration not stated), the T/C reads like this: (dose: 40.0 mg/kg/injection, schedule: Q01DX009 (ip), vehicle: saline with Tween-80) 101 % of control; (dose: 80.0 mg/kg/injection, schedule: Q01DX009 (ip), vehicle: saline with Tween-80) 105 % of control; under setting [11], 118 % of control; (dose: 100.0 mg/kg/injection, schedule: Q04DX003 (ip), vehicle: saline sonified) 110 % of control; (dose: 160.0 mg/kg/injection, schedule: Q01DX009 (ip), vehicle: saline with Tween-80) 104 % of control; under setting [13], 118 % of control. Further, the T/C runs as follows: (dose: 200.0 mg/kg/injection, schedule: Q04DX003 (ip), vehicle: saline sonified) 120 % of control; (dose: 320.0 mg/kg/injection, schedule: Q01DX009 (ip), vehicle: saline with Tween-80) 122 % of control; under setting [15], 118 % of control; (dose: 400.0 mg/kg/injection, schedule: Q04DX003 (ip), vehicle: saline sonified) 120 % of control.

`OCCN1C(c2ccccc2)=CN2C=CSC21` (configuration not stated): the T/C runs as follows: (dose: 100.0 mg/kg/injection, schedule: Q04DX002 (ip), vehicle: saline with Tween-80) 97 % of control; (dose: 200.0 mg/kg/injection, schedule: Q04DX002 (ip), vehicle: saline with Tween-80) 94 % of control; (dose: 400.0 mg/kg/injection, schedule: Q04DX002 (ip), vehicle: saline with Tween-80) 97 % of control.

Regarding `O=C(/C=C/c1ccccc1OCc1cc2ccccc2nc1Cl)c1ccccc1`, the T/C was 87 % of control (dose: 100.0 mg/kg/injection, schedule: Q01DX001 (ip), vehicle: saline with Tween-80); 90 % of control (dose: 200.0 mg/kg/injection, schedule: Q01DX001 (ip), vehicle: saline with Tween-80); 90 % of control (dose: 400.0 mg/kg/injection, schedule: Q01DX001 (ip), vehicle: saline with Tween-80).

As to `C[N+]1(Cc2ccc(C(N)=O)cc2)CCC(CCC2CC[N+](C)(Cc3ccc(C(N)=O)cc3)CC2)CC1` (configuration not stated), the T/C is 93 % of control (dose: 0.78 mg/kg/injection, schedule: Q01DX005 (ip), vehicle: saline with Tween-80); 101 % of control (dose: 1.56 mg/kg/injection, schedule: Q01DX005 (ip), vehicle: saline with Tween-80); 90 % of control (dose: 3.13 mg/kg/injection, schedule: Q01DX005 (ip), vehicle: saline with Tween-80).

With `COC(=O)C1=C(\N2CCOCC2)CCCCC/C=C\1C(=O)OC`, the T/C (dose: 25.0 mg/kg/injection, schedule: Q01DX009 (ip), vehicle: saline with Tween-80) was 99 % of control and 106 % of control; the T/C under setting [9] was 100 % of control and 103 % of control; the T/C under setting [11] was 103 % of control and 107 % of control; the T/C under setting [13] was 88 % of control and 95 % of control.

As for `CC(C)C(NC(=O)C1CCCN1)C(=O)O` (stereo not drawn) (H-Pro-Val-OH; configuration not given here), the T/C reads like this: under setting [7], 103 % of control; under setting [8], 99 % of control; (dose: 200.0 mg/kg/injection, schedule: Q01DX009 (ip), vehicle: saline) 100 % of control.
